Experimental data as given in US20240415914A1, “Water Dispersible Cannabinoid Compositions” (priority 2021, published 2024).

Experiment: Stability of cannabinoid and Vitamin E components of Beverage 1 (AB White) stored at 8° C. and 21-25° C., LCMSMS over 570 days
Type: physicochemical
Details: for Stability in AB White, 8° C. (content by LCMSMS): beverage stored at 8° C.; for Stability in AB White, 21-25° C. (content by LCMSMS): beverage stored at 21-25° C.
Protocol: The LCMSMS was calibrated for 0-1000 ng/ml cannabinoids with the same resin material used in the preparation of the concentrates. At each time period, 100 ml of beverage was diluted with 10 ml of methanol and injected into the LCMSMS for analysis.

CCCCCc1cc(O)c2c(c1)OC(C)(C)c1ccc(C)cc1-2 [CBN, cannabinol]
Stability in AB White, 8° C. (content by LCMSMS) (day 0): 2.79 µg/mL | Stability in AB White, 8° C. (content by LCMSMS) (day 1): 2.77 µg/mL | Stability in AB White, 8° C. (content by LCMSMS) (day 2): 2.72 µg/mL | Stability in AB White, 8° C. (content by LCMSMS) (day 3): 2.73 µg/mL | Stability in AB White, 8° C. (content by LCMSMS) (day 5): 2.76 µg/mL | Stability in AB White, 8° C. (content by LCMSMS) (day 8): 2.75 µg/mL | Stability in AB White, 8° C. (content by LCMSMS) (day 9): 2.76 µg/mL | Stability in AB White, 8° C. (content by LCMSMS) (day 10): 2.79 µg/mL | Stability in AB White, 8° C. (content by LCMSMS) (day 11): 2.71 µg/mL | Stability in AB White, 8° C. (content by LCMSMS) (day 12): 2.80 µg/mL | Stability in AB White, 8° C. (content by LCMSMS) (day 15): 2.79 µg/mL | Stability in AB White, 8° C. (content by LCMSMS) (day 16): 2.77 µg/mL | Stability in AB White, 8° C. (content by LCMSMS) (day 17): 2.82 µg/mL | Stability in AB White, 8° C. (content by LCMSMS) (day 18): 2.71 µg/mL | Stability in AB White, 8° C. (content by LCMSMS) (day 19): 2.71 µg/mL | Stability in AB White, 8° C. (content by LCMSMS) (day 22): 2.76 µg/mL | Stability in AB White, 8° C. (content by LCMSMS) (day 23): 2.71 µg/mL | Stability in AB White, 8° C. (content by LCMSMS) (day 24): 2.75 µg/mL | Stability in AB White, 8° C. (content by LCMSMS) (day 25): 2.75 µg/mL | Stability in AB White, 8° C. (content by LCMSMS) (day 26): 2.76 µg/mL | Stability in AB White, 8° C. (content by LCMSMS) (day 29): 2.76 µg/mL | Stability in AB White, 8° C. (content by LCMSMS) (day 30): 2.78 µg/mL | Stability in AB White, 8° C. (content by LCMSMS) (day 60): 2.68 µg/mL | Stability in AB White, 8° C. (content by LCMSMS) (day 90): 2.74 µg/mL | Stability in AB White, 8° C. (content by LCMSMS) (day 120): 2.72 µg/mL | Stability in AB White, 8° C. (content by LCMSMS) (day 150): 2.69 µg/mL | Stability in AB White, 8° C. (content by LCMSMS) (day 180): 2.77 µg/mL | Stability in AB White, 8° C. (content by LCMSMS) (day 210): 2.75 µg/mL | Stability in AB White, 8° C. (content by LCMSMS) (day 240): 2.70 µg/mL | Stability in AB White, 8° C. (content by LCMSMS) (day 270): 2.75 µg/mL | Stability in AB White, 8° C. (content by LCMSMS) (day 300): 2.71 µg/mL | Stability in AB White, 8° C. (content by LCMSMS) (day 330): 2.75 µg/mL | Stability in AB White, 8° C. (content by LCMSMS) (day 360): 2.68 µg/mL | Stability in AB White, 8° C. (content by LCMSMS) (day 390): 2.67 µg/mL | Stability in AB White, 8° C. (content by LCMSMS) (day 420): 2.70 µg/mL | Stability in AB White, 8° C. (content by LCMSMS) (day 450): 2.70 µg/mL | Stability in AB White, 8° C. (content by LCMSMS) (day 480): 2.66 µg/mL | Stability in AB White, 8° C. (content by LCMSMS) (day 510): 2.60 µg/mL | Stability in AB White, 8° C. (content by LCMSMS) (day 540): 2.56 µg/mL | Stability in AB White, 8° C. (content by LCMSMS) (day 570): 2.56 µg/mL | Stability in AB White, 21-25° C. (content by LCMSMS) (day 0): 2.79 µg/mL | Stability in AB White, 21-25° C. (content by LCMSMS) (day 1): 2.79 µg/mL | Stability in AB White, 21-25° C. (content by LCMSMS) (day 2): 2.81 µg/mL | Stability in AB White, 21-25° C. (content by LCMSMS) (day 3): 2.73 µg/mL | Stability in AB White, 21-25° C. (content by LCMSMS) (day 5): 2.80 µg/mL | Stability in AB White, 21-25° C. (content by LCMSMS) (day 8): 2.71 µg/mL | Stability in AB White, 21-25° C. (content by LCMSMS) (day 9): 2.78 µg/mL | Stability in AB White, 21-25° C. (content by LCMSMS) (day 10): 2.77 µg/mL | Stability in AB White, 21-25° C. (content by LCMSMS) (day 11): 2.80 µg/mL | Stability in AB White, 21-25° C. (content by LCMSMS) (day 12): 2.75 µg/mL | Stability in AB White, 21-25° C. (content by LCMSMS) (day 15): 2.81 µg/mL | Stability in AB White, 21-25° C. (content by LCMSMS) (day 16): 2.75 µg/mL | Stability in AB White, 21-25° C. (content by LCMSMS) (day 17): 2.70 µg/mL | Stability in AB White, 21-25° C. (content by LCMSMS) (day 18): 2.78 µg/mL | Stability in AB White, 21-25° C. (content by LCMSMS) (day 19): 2.73 µg/mL | Stability in AB White, 21-25° C. (content by LCMSMS) (day 22): 2.69 µg/mL | Stability in AB White, 21-25° C. (content by LCMSMS) (day 23): 2.68 µg/mL | Stability in AB White, 21-25° C. (content by LCMSMS) (day 24): 2.79 µg/mL | Stability in AB White, 21-25° C. (content by LCMSMS) (day 25): 2.75 µg/mL | Stability in AB White, 21-25° C. (content by LCMSMS) (day 26): 2.69 µg/mL | Stability in AB White, 21-25° C. (content by LCMSMS) (day 29): 2.75 µg/mL | Stability in AB White, 21-25° C. (content by LCMSMS) (day 30): 2.72 µg/mL | Stability in AB White, 21-25° C. (content by LCMSMS) (day 60): 2.63 µg/mL | Stability in AB White, 21-25° C. (content by LCMSMS) (day 90): 2.66 µg/mL | Stability in AB White, 21-25° C. (content by LCMSMS) (day 120): 2.67 µg/mL | Stability in AB White, 21-25° C. (content by LCMSMS) (day 150): 2.77 µg/mL | Stability in AB White, 21-25° C. (content by LCMSMS) (day 180): 2.68 µg/mL | Stability in AB White, 21-25° C. (content by LCMSMS) (day 210): 2.74 µg/mL | Stability in AB White, 21-25° C. (content by LCMSMS) (day 240): 2.71 µg/mL | Stability in AB White, 21-25° C. (content by LCMSMS) (day 270): 2.67 µg/mL | Stability in AB White, 21-25° C. (content by LCMSMS) (day 300): 2.73 µg/mL | Stability in AB White, 21-25° C. (content by LCMSMS) (day 330): 2.75 µg/mL | Stability in AB White, 21-25° C. (content by LCMSMS) (day 360): 2.67 µg/mL | Stability in AB White, 21-25° C. (content by LCMSMS) (day 390): 2.66 µg/mL | Stability in AB White, 21-25° C. (content by LCMSMS) (day 420): 2.62 µg/mL | Stability in AB White, 21-25° C. (content by LCMSMS) (day 450): 2.61 µg/mL | Stability in AB White, 21-25° C. (content by LCMSMS) (day 480): 2.57 µg/mL | Stability in AB White, 21-25° C. (content by LCMSMS) (day 510): 2.66 µg/mL | Stability in AB White, 21-25° C. (content by LCMSMS) (day 540): 2.63 µg/mL | Stability in AB White, 21-25° C. (content by LCMSMS) (day 570): 2.56 µg/mL
